Measured values reported in US20150175603A1, “TRICYCLIC COMPOUNDS AS KAT II INHIBITORS” (PFIZER INC., priority 2012, published 2015).
Where a name gives a salt, the structure may show the parent alone.

biological target: human KAT II (hKAT II) enzyme (Homo sapiens, UniProt Q8N5Z0); test: KAT II Inhibition Spectra Assay; assay type: biochemical; conditions: single determination unless marked a (geometric mean of 2-4 determinations); decrease in OD370, L-kynurenine substrate, 37° C. for 15-20 h; hydrochloride salt; read-out: KATII IC50
Experimental: KAT II Inhibition Spectra Assay
Formation of kynurenic acid (KYNA) is indirectly assessed by a decrease in light absorbance at 370 nm (OD370) as the L-kynurenine (KYN) substrate is converted by the human KAT II (hKAT II) enzyme into KYNA. An inhibitor would therefore inhibit the decrease in OD370.
The protocol was performed by placing the following reagents into a Costar 384 well black plate (30 μL total assay volume/well): • 10 μL of 3× concentrated compound; • 10 μL of 3× concentrated substrate mix (BGG (Sigma G-5009); 3 mM L-Kynurenine in 150 mM Tris Acetate (Sigma K3750); 3 mM α-ketoglutaric acid in 150 mM Tris Acetate (Sigma K2010); and 210 μM pyridoxal 5-phosphate (PLP) in 150 mM Tris Acetate (Sigma 9255)); and • 10 μL of 3× concentrated enzyme (15 nM enzyme in 150 mM Tris Acetate with 0.3% bovine serum).
Plates were sealed and incubated at 37° C. for 15-20 h before reading OD370 on a SpectraMax Plus plate reader. IC50s were generated by comparing the efficacy of compounds across a concentration range to inhibit a reduction in the OD370 value relative to assay wells with DMSO added in place of concentrated compound. Biological data for the Examples may be found in Table 2.

Chain of human KAT II (hKAT II) enzyme (Q8N5Z0 30-425): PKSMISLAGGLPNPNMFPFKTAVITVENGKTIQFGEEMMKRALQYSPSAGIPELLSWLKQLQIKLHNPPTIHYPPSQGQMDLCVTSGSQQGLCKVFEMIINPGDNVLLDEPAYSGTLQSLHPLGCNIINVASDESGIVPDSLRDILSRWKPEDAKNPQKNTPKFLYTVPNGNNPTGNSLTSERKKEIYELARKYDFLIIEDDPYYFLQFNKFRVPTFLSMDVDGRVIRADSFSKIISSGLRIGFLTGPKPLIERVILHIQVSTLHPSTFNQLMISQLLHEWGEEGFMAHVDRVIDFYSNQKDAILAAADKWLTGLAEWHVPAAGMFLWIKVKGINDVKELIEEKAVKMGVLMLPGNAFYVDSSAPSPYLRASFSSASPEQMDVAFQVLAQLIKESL

| Compound | IC50 [nM] |
| --- | --- |
| COc1cccc(Oc2ccc3c(c2)CC(N)c2n[nH]c(=O)n2-3)c1 (single isomer, unassigned; ent-1) [Example 1, 4-Amino-7-(3-methoxyphenoxy)-4,5-dihydro[1,2,4]triazolo[4,3-a]quinolin-1(2H)-one ENT-1, hydrochloride salt] | 188 |

same assay, conditions: single determination unless marked a (geometric mean of 2-4 determinations); decrease in OD370, L-kynurenine substrate, 37° C. for 15-20 h; read-out: KATII IC50

| Compound | IC50 [nM] |
| --- | --- |
| NC1Cc2cc(Oc3ccccc3)cnc2-n2cnnc21 (single isomer, unassigned) [Example 8, 3—phenoxy—5,6—dihydro[1,2,4]triazolo[4,3—a][1,8]naphthyridin—6—amine ENT—1] | 286 |
| NC1Cc2cc(Oc3ccccc3)cnc2-n2cnnc21 (single isomer, unassigned) [Example 9, 3—phenoxy—5,6—dihydro[1,2,4]triazolo[4,3—a][1,8]naphthyridin—6—amine ENT—2] | 1310 |
| NC1Cc2cc(Oc3ccccc3)cnc2-n2c1n[nH]c2=O (single isomer, unassigned; ent-1) [Example 2, 6-Amino-3-phenoxy-6,8-dihydro[1,2,4]triazolo[4,3-a][1,8]naphthyridin-9(5H)-one, ENT-1] | 59 |
| COc1cccc(Oc2ccc3c(c2)CC(N)c2nncn2-3)c1 (single isomer, unassigned; ent-1) [Example 4, 7-(3-Methoxyphenoxy)-4,5-dihydro[1,2,4]triazolo[4,3-a]quinolin-4-amine, ENT-1] | 107 |
| COc1cccc(Oc2ccc3c(c2)CC(N)c2nncn2-3)c1 (single isomer, unassigned; ent-2) [Example 5, 7-(3-Methoxyphenoxy)-4,5-dihydro[1,2,4]triazolo[4,3-a]quinolin-4-amine, ENT-2] | 1240 |
| COc1cccc(Oc2ccc3c(c2)CC(N)c2n[nH]c(=O)n2-3)c1 (single isomer, unassigned; ent-2) [Example C9, 4-amino-7-(3-methoxyphenoxy)-4,5-dihydro[1,2,4]triazolo[4,3-a]quinolin-1(2H)-one ENT-2, hydrochloride salt] | 3720 |
| NC1Cc2cc(Oc3cccc(C(F)(F)F)c3)ccc2-n2c1n[nH]c2=O (stereo not drawn) [Example 3, 4-amino-7-[3-(trifluoromethyl)phenoxy]-4,5-dihydro[1,2,4]triazolo[4,3-a]quinolin-1(2H)-one, hydrochloride salt] | 91.4 |
| COc1cccc(Oc2ccc3c(c2)C[C@H](N)c2noc(=O)n2-3)c1 [Example 6, (4S)-4-Amino-7-(3-methoxyphenoxy)-4,5-dihydro[1,2,4]oxadiazolo[4,3-a]quinolin-1-one, hydrochloride salt] | 390 |
| NC1Cc2cc(Oc3ccccc3)ncc2-n2cnnc21 (stereo not drawn) [Example 7, 7-Phenoxy-4,5-dihydro[1,2,4]triazolo[4,3-a][1,7]naphthyridin-4-amine, hydrochloride salt] | 413 |
| NC1Cc2cc(Oc3cccc(C(F)(F)F)c3)ccc2-n2cnnc21 (stereo not drawn) [Example 10, 7—[3—(trifluoromethyl)phenoxy]—4,5—dihydro[1,2,4]triazolo[4,3—a]quinolin—4—amine, hydrochloride salt] | 185 |
| NC1Cc2cc(-c3ccccc3Cl)ccc2-n2c1n[nH]c2=O (stereo not drawn) [Example 11, 4—amino—7—(2-chlorophenyl)—4,5—dihydro[1,2,4]triazolo[4,3—a]quinolin—1(2H)—one, trifluoroacetate salt] | 506 |
| NC1Cc2cc(-c3cccc4cnccc34)ccc2-n2c1n[nH]c2=O (stereo not drawn) [Example 12, 4—amino—7—(isoquinolin—5—yl)—4,5—dihydro[1,2,4]triazolo[4,3—a]quinolin—1(2H)—one, trifluoroacetate salt] | 334 |
| COc1cncc(-c2ccc3c(c2)CC(N)c2n[nH]c(=O)n2-3)c1 (stereo not drawn) [Example 13, 4—amino—7—(5—methoxypyriclin—3—yl)—4,5—dihydro[1,2,4]triazolo[4,3—a]quinolin—1(2H)—one, trifluoroacetate salt] | 673 |
| NC1Cc2cc(-c3cccc(Cl)c3)ccc2-n2c1n[nH]c2=O (stereo not drawn) [Example 14, 4—amino—7—(3—chlorophenyl)—4,5—dihydro[1,2,4]triazolo[4,3—a]quinolin—1(2H)—one, trifluoroacetate salt] | 156 |
| Cn1ncc2c(-c3ccc4c(c3)CC(N)c3n[nH]c(=O)n3-4)cccc21 (stereo not drawn) [Example 15, 4—amino—7(1—methyl—1H—indazol—4—yl)—4,5—dihydro[1,2,4]triazolo[4,3—a]quinolin—1(2H)—one, trifluoroacetate salt] | 262 |
| NC1Cc2cc(-c3cccc4ncccc34)ccc2-n2c1n[nH]c2=O (stereo not drawn) [Example 16, 4—amino—7—(quinolin—5—yl)—4,5—dihydro[1,2,4]triazolo[4,3—a]quinolin—1(2H)—one, trifluoroacetate salt] | 664 |

The next lines start with the values.

| IC50 [nM] | Compound |
| --- | --- |
| 1830 | CCOc1cc(-c2ccc3c(c2)CC(N)c2n[nH]c(=O)n2-3)ccn1 (stereo not drawn) [Example 17, 4—amino—7—(2—ethoxypyridin—4—yl)—4,5—dihydro[1,2,4]triazolo[4,3—a]quinolin—1(2H)—one, trifluoroacetate salt] |
| 1360 | Cn1cc(-c2ccc3c(c2)CC(N)c2n[nH]c(=O)n2-3)cn1 (stereo not drawn) [Example 18, 4—amino—7—(1—methyl—1H—pyrazol—4—yl)—4,5—dihydro[1,2,4]triazolo[4,3—a]quinolin—1(2H)—one, trifluoroacetate salt] |
| 751 | COc1ccccc1-c1ccc2c(c1)CC(N)c1n[nH]c(=O)n1-2 (stereo not drawn) [Example 19, 4—amino—7—(2—methoxyphenyl)—4,5—dihydro[1,2,4]triazolo[4,3—a]quinolin—1(2H)—one, trifluoroacetate salt] |
| 546 | NC1Cc2cc(-c3cccnc3)ccc2-n2c1n[nH]c2=O (stereo not drawn) [Example 20, 4—amino—7—(pyridin—3—yl)—4,5—dihydro[1,2,4]triazolo[4,3—a]quinolin—1(2H)—one, trifluoroacetate salt] |
| 1250 | NC1Cc2cc(-c3cc(C(F)(F)F)ccc3Cl)ccc2-n2c1n[nH]c2=O (stereo not drawn) [Example 21, 4—amino—7—[2—chloro—5—(trifluoromethyl)phenyl]—4,5—dihydro[1,2,4]triazolo[4,3—a]quinolin—1(2H)—one, trifluoroacetate salt] |
| 1900 | COc1ccc(-c2ccc3c(c2)CC(N)c2n[nH]c(=O)n2-3)cn1 (stereo not drawn) [Example 22, 4—amino—7—(6—methoxypyridin—3—yl)—4,5—dihydro[1,2,4]triazolo[4,3—a]quinolin—1(2M—one, trifluoroacetate salt] |
| 684 | NC1Cc2cc(-c3cccc(OC(F)(F)F)c3)ccc2-n2c1n[nH]c2=O (stereo not drawn) [Example 23, 4—amino—7—[3—(trifluoromethoxy)pheny1]—4,5—dihydro[1,2,4]triazolo[4,3—a]quinolin—1(2H)—one, trifluoroacetate salt] |
| 1080 | NC1Cc2cc(-c3ccc(F)cc3)ccc2-n2c1n[nH]c2=O (stereo not drawn) [Example 24, 4—amino—7—(4—fluorophenyl)—4,5—dihydro[1,2,4]triazolo[4,3—a]quinolin—1(2H)—one. trifluoroacetate salt] |
| 91.9 | CC(=O)c1cccc(-c2ccc3c(c2)CC(N)c2n[nH]c(=O)n2-3)c1 (stereo not drawn) [Example 25, 7—(3—acetylphenyl)—4—amino—4,5—dihydro[1,2,4]triazolo[4,3—a]quinolin—1(2H)—one, trifluoroacetate salt] |
| 364 | NC1Cc2cc(-c3cccc(F)c3F)ccc2-n2c1n[nH]c2=O (stereo not drawn) [Example 26, 4—amino—7—(2,3-difluorophenyl)—4,5—dihydro[1,2,4]triazolo[4,3—a]quinolin—1(2H)—one, trifluoroacetate salt] |
| 215 | NC1Cc2cc(-c3cccc(C(F)(F)F)c3)ccc2-n2c1n[nH]c2=O (stereo not drawn) [Example 27, 4—amino—7—[3—(trifluoromethyl)phenyl]—4,5—dihydro[1,2,4]triazolo[4,3-a]quinolin—1(2H)—one, trifluoroacetate salt] |
| 357 | COc1cccc(-c2ccc3c(c2)CC(N)c2n[nH]c(=O)n2-3)c1 (stereo not drawn) [Example 28, 4—amino—7—(3—methoxyphenyl)—4,5—dihydro[1,2,4]triazolo[4,3—a]quinolin—1(2H)—one, trifluoroacetate salt] |
| 361 | NC1Cc2cc(-c3ccccc3F)ccc2-n2c1n[nH]c2=O (stereo not drawn) [Example 29, 4—amino—7—(2—fluorophenyl)—4,5—dihydro[1,2,4]triazolo[4,3—a]quinolin—1(2H)—one, trifluoroacetate salt] |
| 534 | CC(C)Oc1cccc(-c2ccc3c(c2)CC(N)c2n[nH]c(=O)n2-3)c1 (stereo not drawn) [Example 30, 4—amino—7—[3—(propan—2—yloxy)phenyl]—4,5—dihydro[1,2,4]triazolo[4,3—a]quinolin—1(2H)—one, trifluoroacetate salt] |
| 660 | Cc1ccccc1-c1ccc2c(c1)CC(N)c1n[nH]c(=O)n1-2 (stereo not drawn) [Example 31, 4—amino—7—(2—methylphenyl)—4,5—dihydro[1,2,4]triazolo[4,3—a]quinolin—1(2H)—one, trifluoroacetate salt] |
| 302 | COc1ccc(F)cc1-c1ccc2c(c1)CC(N)c1n[nH]c(=O)n1-2 (stereo not drawn) [Example 32, 4—amino—7—(5—fluoro—2—methoxyphenyl)—4,5—dihydro[1,2,4]triazolo[4,3—a]quinolin—1(2H)—one, trifluoroacetate salt] |
